Data set [1] is described as follows: Plasma stability assay, rat plasma (values in parentheses). In kind it is in vitro ADME. The following applies: value in parentheses.
The nature of data set [2]: Metabolic stability assay, human microsomes. Format: in vitro ADME. The following applies: human, microsomes; for half-life at 10 µM: both sexes; for Metabolic Stability 60 min hum [% remain.] / Metabolic Stability T½ [min] hum: both, 10 µM; for Metabolic Stability 60 min hum [% remain.]: 1 h.
The nature of data set [3]: Metabolic stability assay, rat microsomes (values in parentheses). In kind it is in vitro ADME. The following applies: value in parentheses.
Data set [4] can be described thus: in vitro. The following applies: human, plasma, 10 µM; for Plasma Stability 240 min hum [% remain.]: 4 h. In kind it is in vitro ADME, human.
Data set [5] can be described thus: Metabolic stability assay, CD-1 mouse microsomes. Format: in vitro ADME. The following applies: CD-1, mouse, microsomes; for Metabolic Stability 60 min mouse [% remain.] / Metabolic Stability T½ [min] mouse: both, 10 µM; for Metabolic Stability 60 min mouse [% remain.]: 1 h.
The target in data set [6] is T1, 5-hydroxytryptamine 2B (5-HT2B) Receptor (Homo sapiens, UniProt P41595).
T1 construct: host or cells: Ca2+ optimized hematopoietic cell lines (rat)
In words: Ca2+ assay (FLIPR) for the GPCR 5-HT2B receptor, agonist and antagonist mode. Format: cell-based. As to the method: Ca^2+ Assays for the GPCRs Motilin Receptor, Prostaglandin F (FP) Receptor, 5-hydroxytryptamine 2B (5-HT2B) Receptor, and Purinoreceptor P2Y1
Assays were performed using on a FLIPR^TETRA fluorometric imaging plate reader (Molecular Devices) with ScreenWorks Version 2 (Molecular Devices) as device operating and data analysis software.
Dose dependent agonist and antagonist activities were determined. Percentage activation and percentage inhibition values were determined.
Percentage activation was determined upon initial addition of the sample compounds followed by 10 minutes incubation at 25° C. Following compound incubation, reference agonists were added at EC80 to determine percentage inhibition.
Reference agonists were purchased from reputable commercial vendors and prepared according to each ligand's specifications. All handling of ligands were done to ensure proper control throughout the experiments.
Example compounds were weighed on a Microbalance (Mettler MX5) and dissolved in 100% DMSO to a final concentration of 2.5 mM and subsequently diluted into the assay buffer.
The Assay buffer was a supplemented HBSS (Hank's Balanced Salt Solution). HBSS was supplemented with 20 mM HEPES (4-(2-hydroxyethyl)-piperazin-1-ethansulfonic acid) and 2.5 mM Probenecid (Sigma P8761).
GPCR assays were performed using Ca^2+ optimized hematopoietic cell lines (rat) with cultures never exceeding 90% confluency. […] After seeding, the assay plates were incubated for forty-five (45) minutes at room temperature. After room temperature incubation, the assay plates were incubated at 37° C. 5% CO2 for 24 hours prior to assaying.
All GPCR assays were performed using Fluo-8 Ca^2+ dye. Ca^2+ dye was prepared at 1× dye concentration in GPCR assay buffer. After 24 hours of incubation, cells were washed with GPCR assay buffer, and then Ca^2+-dye (100 μL/well) was added.
The plates were incubated for 90 minutes at 30° C. 5% CO2 prior to FLIPR assay.
Compound plates were prepared to add 50 μL/well during the agonist assay mode. During the FLIPR assay, 50 μL/well from the compound plate was diluted 3-fold into the existing 100 μL/well from the dye loading step. Therefore all compounds were prepared as 3× the final concentration desired in the assay.
After completion of the first single addition assay run, assay plate was removed from the FLIPR Tetra and placed at 25° C. for seven (7) minutes before antagonist assay.
Using the EC80 values determined during the agonist assay, all pre-incubated sample compound and reference antagonist (if applicable) wells were stimulated at the EC80 of the reference agonist. As reference ligands for the first three assays their obvious natural ligands motilin, prostaglandin F2α, and serotonin (5-HT, 5-Hydroxytryptamine) were used; and for the P2Y1 assay 2MeSATP (2-methyl-thio-adeno-sine 5′-triphosphate, i.e. (2R,3S,4R)-5-(6-amino-2-methylsulfanyl-purin-9-yl)-3,4-dihydroxy-tetrahydrofuran-2-yl]methyl (hydroxy-phosphonooxy-phosphoryl)hydrogen phosphate) was applied.
After the addition of the reference agonist fluorescence was monitored for 180 sec using FLIPR Tetra.
Data Analysis and Results:
From the FLIPR data, with negative control correction enabled, the maximum statistic for each well was exported and percentage activation relative to Emax control was calculated.

Data set [7] in a line: in vitro. In kind it is in vitro ADME, mouse. The following applies: both, CD-1, mouse, plasma, 10 µM; for Plasma Stability 240 min mouse [% remain.]: 4 h.

Bounds are passed on as bounds.
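Wherever Plasma Stability 240 min mouse [% remain.] is given: sodium citrate stabilized mouse plasma, parent compound quantified by HPLC/MS/MS relative to its peak area at time zero, run in triplicate.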
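Wherever Plasma Stability T½ [min] mouse is given: sodium citrate stabilized mouse plasma, parent compound quantified by HPLC/MS/MS relative to its peak area at time zero, run in triplicate.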

T1 sequence (P41595 whole entry, species assumed): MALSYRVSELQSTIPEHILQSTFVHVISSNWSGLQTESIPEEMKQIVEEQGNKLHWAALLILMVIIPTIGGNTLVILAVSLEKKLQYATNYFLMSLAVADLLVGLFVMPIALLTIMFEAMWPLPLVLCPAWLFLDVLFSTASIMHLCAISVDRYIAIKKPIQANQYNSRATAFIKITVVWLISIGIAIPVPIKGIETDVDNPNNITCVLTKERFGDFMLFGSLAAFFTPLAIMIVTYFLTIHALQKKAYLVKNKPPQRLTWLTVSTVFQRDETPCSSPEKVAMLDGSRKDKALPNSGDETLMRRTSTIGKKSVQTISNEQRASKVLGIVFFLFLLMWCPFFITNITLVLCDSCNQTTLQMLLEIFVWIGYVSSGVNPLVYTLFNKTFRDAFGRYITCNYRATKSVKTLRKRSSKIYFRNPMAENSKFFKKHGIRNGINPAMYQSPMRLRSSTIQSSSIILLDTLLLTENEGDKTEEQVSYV

As for `CC(C)CN[C@H]1C[C@H]2COc3cccc(c3)C(=O)N(C)[C@H](C(=O)NCc3ccc4ccccc4c3)COCC(=O)N2C1` [Ex. 373, (4S,6S,13S)-6-(isobutylamino)-14-methyl-N-(2-naphthylmethyl)-9,15-dioxo-2,11-dioxa-8,14-diazatricyclo[14.3.1.0^4,8]icosa-1(20),16,18-triene-13-carboxamide], in data set [1], the “Plasma Stability 240 min (rat) [% remain.]” value was “(100) % remain” and the “Plasma Stability T½ [min] (rat)” value was “(240) min”. Besides, in data set [2], the half-life at 10 µM turned out to be 0.2 h and the “Metabolic Stability 60 min hum [% remain.]” value is on record as 12 % remain. Moreover, the “Metabolic Stability 60 min (rat) [% remain.]” value in data set [3] came out at 0 % remain. In data set [3] (read-out: Metabolic Stability T½ [min] (rat)), the half-life at 10 µM was 7 min. In the data set “in vitro [4]”, the Plasma Stability T½ [min] hum is over 240 min and the “Plasma Stability 240 min hum [% remain.]” value is on record as 55 % remain. In data set [5] (both sexes), the half-life at 10 µM was found to be 0.6 h. Further, the “Metabolic Stability 60 min mouse [% remain.]” value in data set [5] is 39 % remain.

Take `CN1CC(=O)N2C[C@@H](NC(=O)OC(C)(C)C)C[C@H]2COc2ccc(F)cc2C(=O)N(C)[C@H](C(=O)NCCc2c[nH]c3ccccc23)CCC1=O` [Ex. 30, tert-butyl N-[(2S,11S,19aS)-15-fluoro-11-({[2-(1H-indol-3-yl)ethyl]amino}carbonyl)-7,12-dimethyl-5,8,13-trioxo-2,3,6,7,8,9,10,11,12,13,19,19a-dodecahydro-1H,5H-pyrrolo[2,1-c] [1,4,7,12]benzoxatriazacyclopentadecin-2-yl]carbamate]: in data set [6], the EC50 (in general, the concentration at which the effect is half-maximal) came to 3.3 µM and the “Agonist activity [% activation at 12.5 μM]” value is reported as 48%. For the same compound, in data set [2], the half-life at 10 µM came out at 0.367 h and the “Metabolic Stability 60 min hum [% remain.]” value is on record as 2 % remain. In “in vitro [4]”, the Plasma Stability T½ [min] hum was over 240 min and the “Plasma Stability 240 min hum [% remain.]” value is given as 85 % remain. For the same compound, in data set [5], the Metabolic Stability T½ [min] mouse is over 60 min and the “Metabolic Stability 60 min mouse [% remain.]” value was 55 % remain. In the data set “in vitro [7]”, the Plasma Stability T½ [min] mouse is over 240 min and the “Plasma Stability 240 min mouse [% remain.]” value was determined as 100 % remain.

`CN1C(=O)c2cccc(c2)OC[C@@H]2C[C@H](N)CN2C(=O)COC[C@H]1C(=O)NCc1ccc2ccccc2c1` [Ex. 368, (4S,6S,13S)-6-amino-14-methyl-N-(2-naphthylmethyl)-9,15-dioxo-2,11-dioxa-8,14-diazatricyclo[14.3.1.0^4,8]icosa-1(20),16,18-triene-13-carboxamide]: in data set [1], the “Plasma Stability 240 min (rat) [% remain.]” value was “(100) % remain” and the “Plasma Stability T½ [min] (rat)” value is recorded as “(240) min”. Also, in data set [2], the Metabolic Stability T½ [min] hum was over 60 min and the “Metabolic Stability 60 min hum [% remain.]” value was 83 % remain. Further, in data set [3], the “Metabolic Stability 60 min (rat) [% remain.]” value is given as 98 % remain and the “Metabolic Stability T½ [min] (rat)” value was 60 (60) min. In “in vitro [4]”, the Plasma Stability T½ [min] hum is over 240 min and the “Plasma Stability 240 min hum [% remain.]” value was 72 % remain. Further, in data set [5], the Metabolic Stability T½ [min] mouse is over 60 min and the “Metabolic Stability 60 min mouse [% remain.]” value was determined as 82 % remain.

`CC(=O)N[C@H]1C[C@H]2COc3ccc(F)cc3C(=O)N(C)[C@H](C(=O)NCCc3c[nH]c4ccccc34)CCC(=O)N(C)CC(=O)N2C1` [Ex. 9, (2S,11S,19aS)-2-(acetylamino)-15-fluoro-N-[2-(1H-indol-3-yl)ethyl]-7,12-dimethyl-5,8,13-trioxo-2,3,6,7,8,9,10,11,12,13,19,19a-dodecahydro-1H,5H-pyrrolo[2,1-c] [1,4,7,12]benzoxatriazacyclopentadecine-11-carboxamide]: in data set [6], the EC50 is 12 µM and the “Agonist activity [% activation at 12.5 μM]” value is 48%. Besides, in data set [2], the half-life at 10 µM is 0.533 h and the “Metabolic Stability 60 min hum [% remain.]” value is reported as 20 % remain. In “in vitro [4]”, the Plasma Stability T½ [min] hum is over 240 min and the “Plasma Stability 240 min hum [% remain.]” value was 99 % remain. Further, in data set [5], the Metabolic Stability T½ [min] mouse was over 60 min and the “Metabolic Stability 60 min mouse [% remain.]” value came out at 80 % remain. In addition, in “in vitro [7]”, the Plasma Stability T½ [min] mouse is over 240 min and the “Plasma Stability 240 min mouse [% remain.]” value was 93 % remain.

Turning to `COCCNC(=O)[C@@H]1COCC(=O)N2C[C@@H](NCC(C)C)C[C@H]2COc2cccc(c2)C(=O)N1C` [Ex. 376, (4S,6S,13S)-6-(isobutylamino)-N-(2-methoxyethyl)-14-methyl-9,15-dioxo-2,11-dioxa-8,14-diazatricyclo[14.3.1.0^4,8]icosa-1(20),16,18-triene-13-carboxamide], in data set [1], the “Plasma Stability 240 min (rat) [% remain.]” value is “(89) % remain” and the “Plasma Stability T½ [min] (rat)” value was “(240) min”. In data set [2], the Metabolic Stability T½ [min] hum is over 60 min and the “Metabolic Stability 60 min hum [% remain.]” value is recorded as 79 % remain. In data set [3], the “Metabolic Stability 60 min (rat) [% remain.]” value stood at 78 % remain and the “Metabolic Stability T½ [min] (rat)” value is reported as 60 (60) min. Moreover, in the data set “in vitro [4]”, the Plasma Stability T½ [min] hum was over 240 min and the “Plasma Stability 240 min hum [% remain.]” value is 90 % remain. Also, in data set [5], the Metabolic Stability T½ [min] mouse is over 60 min and the “Metabolic Stability 60 min mouse [% remain.]” value worked out at 91 % remain.

For `CN(C)CC(=O)N[C@H]1C[C@H]2COc3ccc(F)cc3C(=O)N(C)[C@H](C(=O)NCCc3c[nH]c4ccccc34)CCC(=O)N(C)CC(=O)N2C1` [Ex. 16, (2S,11S,19aS)-2-{[2-(dimethylamino)acetyl]amino}-15-fluoro-N-[2-(1H-indol-3-yl)ethyl]-7,12-dimethyl-5,8,13-trioxo-2,3,6,7,8,9,10,11, 12,13,19,19a-dodecahydro-1H,5H-pyrrolo [2,1-c] [1,4,7,12]benzoxatriazacyclopentadecine-11-carboxamide], in data set [6], the EC50 stood at 6.6 µM and the “Agonist activity [% activation at 12.5 μM]” value is on record as 45%. For the same compound, in data set [2], the half-life at 10 µM was 0.633 h and the “Metabolic Stability 60 min hum [% remain.]” value was 31 % remain. In the data set “in vitro [4]”, the Plasma Stability T½ [min] hum is over 240 min and the “Plasma Stability 240 min hum [% remain.]” value came to 95 % remain. In addition, in data set [5], the Metabolic Stability T½ [min] mouse was over 60 min and the “Metabolic Stability 60 min mouse [% remain.]” value was 79 % remain. Further, in the data set “in vitro [7]”, the Plasma Stability T½ [min] mouse is over 240 min and the “Plasma Stability 240 min mouse [% remain.]” value was determined as 97 % remain.

Values taken from US9512139B2, “Conformationally constrained, fully synthetic macrocyclic compounds” (POLYPHOR AG, priority 2009, dated 2016).
